Patent US6025467A, “Parathyroid hormone derivatives and their use” (Takeda Chemical Industries, Ltd., priority 1995, dated 2000)
Residues, ends and D or L forms follow the SMILES beside them.

Experiments:
[1] = target: T1, PTH receptor (Mus musculus, UniProt P41593); test: cAMP increase in MC3T3-EI osteoblast-like cells (biological activity in vitro); format: cell-based; conditions: 1 nM analogue, room temperature for 30 minutes, total cAMP by radioimmunoassay
T1 construct: a mouse cranial bone-derived osteoblast-like cell strain, MC3T3-EI cells; endogenous in cells; host or cells: MC3T3-E1 mouse osteoblast-like cells
T1 sequence (P41593 27-591): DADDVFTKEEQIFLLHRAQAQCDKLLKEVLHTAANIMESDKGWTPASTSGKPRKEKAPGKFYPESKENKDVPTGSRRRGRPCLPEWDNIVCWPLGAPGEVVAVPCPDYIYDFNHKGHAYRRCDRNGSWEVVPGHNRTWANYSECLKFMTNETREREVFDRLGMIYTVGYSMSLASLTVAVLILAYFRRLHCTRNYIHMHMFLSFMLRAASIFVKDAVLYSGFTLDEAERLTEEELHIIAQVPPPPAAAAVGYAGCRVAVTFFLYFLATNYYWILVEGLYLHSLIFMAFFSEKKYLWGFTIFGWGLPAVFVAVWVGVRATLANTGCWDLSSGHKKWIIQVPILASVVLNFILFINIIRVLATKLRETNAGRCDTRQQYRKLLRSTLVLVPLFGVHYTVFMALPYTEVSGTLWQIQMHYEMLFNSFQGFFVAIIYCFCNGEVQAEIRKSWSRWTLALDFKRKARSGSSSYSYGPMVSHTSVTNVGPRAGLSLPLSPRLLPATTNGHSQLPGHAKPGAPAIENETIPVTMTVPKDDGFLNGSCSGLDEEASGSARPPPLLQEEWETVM
Method: The biological activity of the PTH(1-34) peptide analogues was evaluated by the method reported by Shigeno et al., The Journal of Biological Chemistry, 263, 18369-18377 (1988) with a modification. A culture solution (Hank's solution, containing 20 mM N-2-hydroxyethylpiperazine-N'-2-ethanesulfonic acid (HEPES), 0.1% bovine serum albumin and 0.5 mM isobutylmethyl-xanthine) containing a 0.01, 0.1, 1, 10 or 100 nM peptide derivative was added in an amount of 100 μl to a mouse cranial bone-derived osteoblast-like cell strain, MC3T3-EI cells, cultivated on a 96-well multiplate (Nunclon, Nunc), followed by reaction at room temperature for 30 minutes. After addition of 100 μl of 0.2N hydrochloric acid, the plate was immersed in boiling water for 2.5 minutes to extract cyclic adenosine monophosphate (cAMP) produced by a PTH receptor from the cells. The total cAMP in the culture solution and the cells was assayed using a commercial radioimmunoassay kit (cyclic AMP [^125 I] kit "Du Pont-Daiichi", Daiichi Kagaku Yakuhin). For the biological activity of the PTH(1-34) peptide derivatives, increases in cAMP caused by 1 nM analogues are shown in Table 3.

[2] = tested on: Sprangue Dawley rats; test: Increase in femur bone weight in rats after subcutaneous dosing; format: in vivo, rat; conditions: 4.9 nmol/kg a day subcutaneously for two weeks; four-week-old male rats; dried right femur weight compared with vehicle group
Method: To four-week-old male Sprangue Dawley rats, the compounds synthesized in Example 1 […], and increases in the bone weight in their femurs were compared with that of a group to which a vehicle (0.15M NaCl, 0.001N hydrochloric acid and 2% heat-inactivated rat serum) was given. After administration, their right femurs were taken out, and the tissues around them were removed. Then, the femurs were dried at 100° C. for 3 hours and weighed.

cAMP increase [1] [pmol/well]	SMILES	bone increase [2] [mg]
0.60	CC[C@H](C)[C@H](NC(=O)[C@H](CCC(=O)O)NC(=O)[C@H](CO)NC(=O)[C@@H](NC(=O)[C@@H](N)CO)C(C)C)C(=O)N[C@@H](CCC(N)=O)C(=O)N[C@@H](CC(C)C)C(=O)N[C@@H](CCSC)C(=O)N[C@@H](Cc1c[nH]cn1)C(=O)N[C@@H](CC(=O)O)C(=O)N[C@@H](CC(C)C)C(=O)NCC(=O)N[C@@H](CCCCN)C(=O)N[C@@H](Cc1c[nH]cn1)C(=O)N[C@@H](CC(C)C)C(=O)N[C@@H](CC(N)=O)C(=O)N[C@@H](CO)C(=O)N[C@@H](CCSC)C(=O)N[C@@H](CCC(=O)O)C(=O)N[C@@H](CCCNC(=N)N)C(=O)N[C@H](C(=O)N[C@@H](CCC(=O)O)C(=O)N[C@@H](Cc1c[nH]c2ccccc12)C(=O)N[C@@H](CC(C)C)C(=O)N[C@@H](CCCNC(=N)N)C(=O)N[C@@H](CCCCN)C(=O)N[C@@H](CCCCN)C(=O)N[C@@H](CC(C)C)C(=O)N[C@@H](CCC(N)=O)C(=O)N[C@@H](CC(=O)O)C(=O)N[C@H](C(=O)N[C@@H](Cc1c[nH]cn1)C(=O)N[C@@H](CC(N)=O)C(=O)N[C@@H](Cc1ccccc1)C(=O)O)C(C)C)C(C)C [(3), [Asp^10] hPTH(1-34)]	26.1
1.81	CC[C@H](C)[C@H](NC(=O)[C@H](CCC(=O)O)NC(=O)[C@H](CO)NC(=O)[C@@H](NC(=O)[C@@H](N)CO)C(C)C)C(=O)N[C@@H](CCC(N)=O)C(=O)N[C@@H](CC(C)C)C(=O)N[C@@H](CCSC)C(=O)N[C@@H](Cc1c[nH]cn1)C(=O)N[C@@H](CCC(=O)O)C(=O)N[C@@H](CC(C)C)C(=O)NCC(=O)N[C@@H](CCCCN)C(=O)N[C@@H](Cc1c[nH]cn1)C(=O)N[C@@H](CC(C)C)C(=O)N[C@@H](CC(N)=O)C(=O)N[C@@H](CO)C(=O)N[C@@H](CCSC)C(=O)N[C@@H](CCC(=O)O)C(=O)N[C@@H](CCCNC(=N)N)C(=O)N[C@H](C(=O)N[C@@H](CCC(=O)O)C(=O)N[C@@H](Cc1c[nH]c2ccccc12)C(=O)N[C@@H](CC(C)C)C(=O)N[C@@H](CCCNC(=N)N)C(=O)N[C@@H](CCCCN)C(=O)N[C@@H](CCCCN)C(=O)N[C@@H](CC(C)C)C(=O)N[C@@H](CCC(N)=O)C(=O)N[C@@H](CC(=O)O)C(=O)N[C@H](C(=O)N[C@@H](Cc1c[nH]cn1)C(=O)N[C@@H](CC(N)=O)C(=O)N[C@@H](Cc1ccccc1)C(=O)O)C(C)C)C(C)C [(4), [Glu^10] hPTH(1-34)]	31.1
2.58	CC[C@H](C)[C@H](NC(=O)[C@H](CCC(=O)O)NC(=O)[C@H](CO)NC(=O)[C@@H](NC(=O)[C@@H](N)CO)C(C)C)C(=O)N[C@@H](CCC(N)=O)C(=O)N[C@@H](CC(C)C)C(=O)N[C@@H](CCSC)C(=O)N[C@@H](Cc1c[nH]cn1)C(=O)N[C@@H](CC(=O)O)C(=O)N[C@@H](Cc1ccccc1)C(=O)NCC(=O)N[C@@H](CCCCN)C(=O)N[C@@H](Cc1c[nH]cn1)C(=O)N[C@@H](CC(C)C)C(=O)N[C@@H](CC(N)=O)C(=O)N[C@@H](CO)C(=O)N[C@@H](CCSC)C(=O)N[C@@H](CCC(=O)O)C(=O)N[C@@H](CCCNC(=N)N)C(=O)N[C@H](C(=O)N[C@@H](CCC(=O)O)C(=O)N[C@@H](Cc1c[nH]c2ccccc12)C(=O)N[C@@H](CC(C)C)C(=O)N[C@@H](CCCNC(=N)N)C(=O)N[C@@H](CCCCN)C(=O)N[C@@H](CCCCN)C(=O)N[C@@H](CC(C)C)C(=O)N[C@@H](CCC(N)=O)C(=O)N[C@@H](CC(=O)O)C(=O)N[C@H](C(=O)N[C@@H](Cc1c[nH]cn1)C(=O)N[C@@H](CC(N)=O)C(=O)N[C@@H](Cc1ccccc1)C(=O)O)C(C)C)C(C)C [(5), [Asp^10, Phe^11] hPTH(1-34)] (H-SVSEIQLMHDFGKHLNSMERVEWLRKKLQDVHNF-OH)	20.4
